These results are taken from patent publication US20160274087A1, “SCREENING ASSAY FOR AGENTS THAT INFLUENCE BETA CELL NUMBER AND/OR PHENOTYPE” (VRIJE UNIVERSITEIT BRUSSEL, priority 2013, published 2016).

Experiment [1] relates to rat beta cells. The experiment in a line: Cellular insulin content, insulin release and glucose-stimulated insulin secretion of cultured beta cells. It counts as cell-based. The settings on record: for Insulin Content Day 15: HC. How it is done:
Beta cells were FACS-purified from islet-cell enriched suspensions (Pipeleers et al., 1985) prepared from neonatal (2-3 days-old) and adolescent or adult (8 or 40-week-old, male) Wistar rats (Janvier Bioservices, France); their purity was, respectively 70-75% and over 90%. Sorted cells were counted in a hemocytometer, seeded (day 0) and cultured for up to 15 days in serum-free Ham's-F10 medium at 5, 10 or 20 mmol/l glucose, supplemented with 2 mmol/l L-glutamine, 50 μM 3-isobutyl-1-methylxanthine, 0.5% Albumax-I, penicillin (100 U/ml) and streptomycin (0.1 mg/ml). The 10 mmol/l glucose condition is known to maintain beta cell survival over 9-days (Ling et al., 1994; Ling and Pipeleers, 1994). Medium and cells were retrieved after selected culture periods and assayed for insulin content; data were expressed as a function of the number of living beta cells that was determined in parallel wells.

Experiment [2] relates to alpha cells. The experiment in a line: Alpha cell numbers in cultured dissociated rat islet cells. Format: cell-based. The settings on record: HC-containing medium; control 40±3%. From the text:
We next tested cell type-specificity of HC-induced proliferation by using dissociated rat islet cells containing 15-20% alpha cells and 10-15% other cell types. […] Non-endocrine pancreatic cells were virtually undetectable on day 15, presumably died out due to the serum-free culture conditions.

Experiment [3] has as its system alloxan-diabetic mice. As to the kind of experiment: Implantation of in vitro expanded beta cells in alloxan-diabetic mice. Format: in vivo. As to the method:
FIG. 8. Alloxan-induced diabetes in mice can be reversed with implantation of in vitro-generated beta cells. Sorted beta cells were cultured in control medium or in the presence of HC up to day 9 and then switched to basal condition for the last six days of culture. IPGTT was used to determine glucose clearance rate. Glucose was administered (3 g/kg body weight) by in intraperitoneal injection into a 2 h-fasted animals and blood glucose levels were measured at the indicated time points during the following 120-min. Data are from animals transplanted with control cells (black triangles; n=3), in vitro expanded cells (black squares; n=5) and normal control animals (inverted triangles; n=2).
In this respect was it relevant to adjust culture conditions so that the expanded beta cell mass was not degranulated. We compared the in vivo function and hormone reserve of implants that were formed by equal numbers of beta cells collected from either control or HC-treated preparations, HC being withdrawn for the last 6 days (as in Table 7). At the end of 15 days culture, cell yield after HC was 54 to 110 percent higher than in control (paired cultures from three different islet isolation experiments), thus allowing preparation of more grafts per experiment. Respective grafts contained a similar number of beta cells and a similar total hormone content (for the three experiments between 10 to 15 μg insulin per graft). […] Both also presented an equally rapid normalization of glycemia following an intraperitoneal glucose load with similar kinetics to normal control animals (FIG. 8).

The target of experiment [4] is T1, mineralocorticoid receptor (MR) (Homo sapiens, UniProt P08235).
T1 sequence (P08235 1-984): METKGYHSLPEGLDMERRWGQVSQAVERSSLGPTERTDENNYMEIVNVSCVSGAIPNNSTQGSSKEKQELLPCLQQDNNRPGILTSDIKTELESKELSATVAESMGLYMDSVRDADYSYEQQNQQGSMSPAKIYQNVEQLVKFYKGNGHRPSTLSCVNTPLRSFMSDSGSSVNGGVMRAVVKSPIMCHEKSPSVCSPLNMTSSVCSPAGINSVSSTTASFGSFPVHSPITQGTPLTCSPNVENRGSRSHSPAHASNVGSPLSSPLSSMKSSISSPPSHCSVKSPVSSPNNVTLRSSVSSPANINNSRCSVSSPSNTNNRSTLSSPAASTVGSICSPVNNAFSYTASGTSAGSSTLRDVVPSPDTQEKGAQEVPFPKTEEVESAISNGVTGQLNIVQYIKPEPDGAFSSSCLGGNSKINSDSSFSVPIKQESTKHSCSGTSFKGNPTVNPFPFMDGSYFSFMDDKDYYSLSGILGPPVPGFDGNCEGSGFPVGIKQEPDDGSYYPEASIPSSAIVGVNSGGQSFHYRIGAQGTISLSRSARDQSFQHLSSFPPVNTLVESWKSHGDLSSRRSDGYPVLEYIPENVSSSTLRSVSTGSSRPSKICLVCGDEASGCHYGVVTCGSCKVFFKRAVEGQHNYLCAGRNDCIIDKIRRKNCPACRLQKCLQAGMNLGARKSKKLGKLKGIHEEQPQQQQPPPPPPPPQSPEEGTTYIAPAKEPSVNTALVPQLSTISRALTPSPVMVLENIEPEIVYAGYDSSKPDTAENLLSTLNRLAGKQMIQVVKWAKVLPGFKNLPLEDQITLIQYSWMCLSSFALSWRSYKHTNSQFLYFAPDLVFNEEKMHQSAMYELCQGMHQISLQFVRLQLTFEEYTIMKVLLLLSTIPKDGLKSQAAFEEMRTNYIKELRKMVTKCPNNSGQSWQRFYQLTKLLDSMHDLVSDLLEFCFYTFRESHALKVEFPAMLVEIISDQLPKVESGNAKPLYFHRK
The settings on record: cited from earlier work.

On to `C[C@]12CCC(=O)C=C1CC[C@@H]1[C@@H]2[C@@H](O)C[C@@]2(C)[C@H]1CC[C@]2(O)C(=O)CO` [Hydrocortisone, hydrocortisone], for which the “Insulin Content Day 15” value in experiment [1] (9 days, 6 days, control) is recorded as 33.1 ± 2.9 ng/10^3 cells. For the same molecule, the “Insulin Content Day 15” value in experiment [1] (15 days, control 35.3 ± 3.6) is 9.3 ± 0.7 ng/10^3 cells. Further, the “Insulin Content Day 9” value in experiment [1] (continuous HC, control 23.7 ± 0.9) is 14.0 ± 1.4 ng/10^3 cells. For the same molecule, in experiment [1] (continuous incubation with HC), the “loss of insulin content on day 9” value is reported as 56% and the “loss of insulin content on day 15” value is given as “more than 70%”. Also, the “alpha cell numbers after 15-day culture (% of the starting level)” value in experiment [2] came to 57±1%. In addition, the “circulating C-peptide level at week 1 post-transplantation” value in experiment [3] (HC group grafts, control 2.3±0.2) turned out to be 2.4 ± 0.2 nM. The “circulating C-peptide level at week 5 post-transplantation” value in experiment [3] (HC group grafts, control 2.6±0.2) turned out to be 2.6 ± 0.4 nM. For the same molecule, the “Insulin Content, Pancreas” value in experiment [3] (animals transplanted with cells from proliferation condition (HC up to day 9, then control medium)) is on record as 0.7 ± 0.2 μg/sample. Moreover, the “Insulin Content, Graft” value in experiment [3] (animals transplanted with cells from proliferation condition (HC up to day 9, then control medium), post-transplantation week 4) amounted to 7.2 ± 1.3 μg/sample. For the same molecule, in experiment [3] (grafts of HC-treated beta cells in abdominal fat pad), the “correction of hyperglycemia after implantation” value is “corrected hyperglycemia within one week”. The “Relative Potencies MR” value in experiment [4] was 1.
